pIC50: −log10 of the molar value.

This experiment deals with Porcine Smooth Muscle Cell. The experiment can be described thus: Effects of compounds on cell proliferation using 3H thymidine incorporation. In kind it is cell-based. Particulars: serum/growth factor stimulated cells; for pIC50: 24-36 h incubation, read-out: Porcine Smooth Muscle Cell Antiproliferation IC50. As to the method: Effects of Compounds on Cell Proliferation Using ^3H Thymidine Incorporation
Human and porcine smooth muscle cells were tested in early passage (generally passage 3-7) at sub-confluent conditions. Cultures were grown in 16 mm (24 well) multi-well culture dishes in medium 199 supplemented with 10% fetal bovine serum and 2% antibiotic/antimycotic. At sub-confluence, the cells were placed in a defined serum free medium (AIM-V; Gibco) for 24-48 h prior to initiating the experimental protocol.
Compounds were added to each well at 50 fold dilution (20 μL/well) and the plates were incubated for 24-36 h at 37° C. in 5% CO2. Compounds were initially dissolved in 50% ethanol and serially diluted into media. Compounds were routinely evaluated at concentrations from 1 to 100 μM. As a control, grade II porcine intestinal mucosal heparin (sodium salt) was routinely evaluated in all cell preparations at concentrations from 0.1 to 100 μg/mL.
At the completion of the test procedure, plates were placed on ice, washed three times with ice cold phosphate buffered saline (PBS) and incubated in ice cold 10% trichloroacetic acid (TCA) got 30 min to remove acid soluble proteins. Solution was transferred to scintillation vials containing 0.4 N HCl (500 μL/vial to neutralize NaOH) and each well was rinsed two times with water (500 μL) for a total volume of 2 mL/vial.
Data was obtained, in triplicate, for both control and experimental samples. Control (100%) data was obtained from maximally stimulated cells, as the result of growth factor or serum stimulation. Experimental data was obtained from cells maximally stimulated with growth factor or serum and treated with compound. Data are provided below in Table 1 as an IC50.
For orientation: Uptake of a labelled nucleoside into DNA is a usual measure of proliferation.

For `CC(=O)OCC1OC(NC(=O)c2ccc(Cl)nc2)C(OC(C)=O)C(OC(C)=O)C1OC1OC(COC(C)=O)C(OC(C)=O)C(OC(C)=O)C1OC(C)=O` [Example 1, 6-Chloro-N-(Hepta-O-acetyl-β-D-cellobiosyl)-3-pyridinecarboxamide], the pIC50 was 5.45.

Turning to `O=C(NC1OC(CO)C(OC2OC3COC(c4ccccc4)OC3C(O)C2O)C(O)C1O)c1ccc(Cl)nc1` [Example 2, N-(4′,6′-O-benzylidene-β-D-cellobiosyl)-6-chloro-nicotinamide], the “Porcine Smooth Muscle Cell Antiproliferation (% at 50 μM)” value came out at 40% at 50 μM.

Consider `COc1ccc(C(=O)NC2OC(COC(C)=O)C(OC3OC(COC(C)=O)C(OC(C)=O)C(OC(C)=O)C3OC(C)=O)C(OC(C)=O)C2OC(C)=O)c(OC)n1` (centres unmarked) [Example 4], for which the pIC50 is 5.51.

With `CC(=O)OCC1OC(NC(=O)c2ccc(F)c(Cl)c2)C(OC(C)=O)C(OC(C)=O)C1OC1OC(COC(C)=O)C(OC(C)=O)C(OC(C)=O)C1OC(C)=O` [Example 5, N-(hepta-O-acetyl-β-D-cellobiosyl)-3-chloro-4-fluoro-benzamide], the pIC50 was 4.93.

As for `O=C(NC1OC(CO)C(OC2OC3COC(c4ccccc4)OC3C(O)C2O)C(O)C1O)c1ccc(F)cc1Cl` [Example 6, N-(4′,6′-O-benzylidene-β-D-cellobiosyl)-2-chloro-4-flouro-benzamide], the “Porcine Smooth Muscle Cell Antiproliferation (% at 50 μM)” value worked out at 5% at 50 μM.

The values are drawn from patent publication US6362170B1, “Benzylglycosylamides as inhibitors of smooth muscle cell proliferation” (American Home Products Corporation, priority 1998, dated 2002).
